# Measurements: patent publication US8193172B2, “Methods for the treatment of major depressive disorder using glucocorticoid receptor antagonists” (Pop Test Cortisol LLC, priority 2001, dated 2012)
# Like-named read-outs stand apart in the source and are kept apart here.
# What was measured:
# [1] = test system: Major Depressive Disorder patients; test: Double blind, 4 week, paroxetine controlled study of Org 34517 in depressed patients (HAMD-21, afternoon cortisol test); type: in vivo; conditions: daily dose 150-300 mg, oral, FIG. 1
# Procedure: A double blind, 4 week, paroxetine controlled study of Org 34517 in depressed patients was carried out. Paroxetine is a selective serotonin re-uptake inhibitor which is recognized as an effective antidepressant for major depression.
# Patients were randomly allocated to one of three treatment groups. Group I patients (50 patients) received 2 capsules with 75 mg of Org 34517 and one placebo (total daily dose 150 mg) for the first 2 weeks and 2 capsules with 75 mg Org 34517 and 1 capsule with 150 mg (total daily dose 300 mg) the next 2 weeks; Group II patients (46 patients) received 3 capsules with 150 mg Org 34517 (total daily dose 450 mg) in the first 2 weeks and 4 capsules of Org 34517 (total daily dose 600 mg) in the next 2 weeks; Group III patients (44 patients) received 2 capsules with 10 mg paroxetine and one placebo capsule (total daily dose 20 mg) for the first 2 weeks, followed by 2 capsules of 10 mg and one capsule of 20 mg paroxetine (total daily dose 40 mg) in the next 2 weeks. Medication was administered orally in the morning. Efficacy assessment was done on days 4, 7, 10, 14, 21, 28 and 35 by using the 21-item HAMD scale.
# The cortisol levels were determined using the afternoon cortisol test (ACT) as described by Halbreich et al. [J. Clin. Endocrinol. Metab. (1982) 54 (6), 1262].
# [2] = test system: psychosis associated with psychotic major depression; conditions: mifepristone 8-12 mg/kg/day over 4 days; cited from earlier work
# [3] = test system: psychosis associated with psychotic major depression; conditions: cited from earlier work
Compound,"p of correlation between HAMD-21 change and cortisol (ACT) change ([1]; HAMD-21 change scored at day 14, cortisol change at 28 days)",clinical improvement (HAMD decrease) in relation to cortisol change [1],effect in the treatment of psychosis associated with psychotic major depression [2],change in Brief Psychiatric Rating Scale ([3]; daily dose 50 mg) [%],change in Brief Psychiatric Rating Scale ([3]; daily dose 600 mg) [%],change in Brief Psychiatric Rating Scale ([3]; daily dose 1200 mg) [%]
"CC#C[C@]1(O)CC[C@H]2[C@@H]3CCC4=CC(=O)CCC4=C3[C@@H](c3ccc4c(c3)OCO4)C[C@@]21C [Org 34517, (11β,17β)-11-(1,3-benzodioxol-5-yl)-17-hydroxy-17-(1-propynyl)estra-4,9-dien-3-one]",0.02,most prominent clinical improvement (HAMD decrease) is seen in patients were cortisol is not increased,,,,
"CC#C[C@]1(O)CC[C@H]2[C@@H]3CCC4=CC(=O)CCC4=C3[C@@H](c3ccc(N(C)C)cc3)C[C@@]21C [mifepristone, 17β-hydroxy-11β-(4-dimethylaminophenyl)-17α-(1-propynyl)estra-4,9-dien-3-one]",,,effective,33,40,52
